From patent publication US10196403B2, “Compounds and compositions and uses thereof” (Sunovion Pharmaceuticals Inc., priority 2016, dated 2019)
Where two headings read alike, the source gives them in different places.

Tests used:
Assay type in all cases: in vivo
[1] = system: Adult male AJ mice; assay: Tail suspension test (TST); parameters: key: +++ = <1.0 mg/kg; ++ = 1-10 mg/kg; + = 10-30 mg/kg; NE = no effect; details: oral gavage 30 min before test; time immobile
Text: The tail suspension test (TST) is a rodent screening test for potential (human) antidepressant drugs. It is based on the assumption that an animal will actively try to escape an aversive (stressful) stimulus. If escape is impossible, the animal will eventually stop trying (“give up”). In the TST, a mouse is suspended by the tail so that its body dangles in the air, head downward. Mice initially struggle to face upward and climb to a solid surface. When the animal stops struggling and hangs immobile it is considered to have “given up”. Shorter periods of immobility are characteristic of antidepressant-like activity. Accordingly, longer periods of immobility are considered indicative of a depressive-like state. It has been shown that treatment with an antidepressant drug will decrease the time the animal spends immobile. See generally L. Stem et al., Psychopharmacology (Berl). 1985; 85(3):367-70; B. Thierry et al., Psychopharmacology 1986; 90:284-85.
Procedure. Adult male AJ mice from Jackson Laboratories received vehicle (sterile water) or test compound orally by gavage, or the positive control desipramine (20 mg/kg, i.p.), in 10 mL/kg injection volumes, 30 min before being subjected to the Tail Suspension Test. In this test, mice are placed in the Tail Suspension chambers (white polyvinylchloride cubicles measuring 33×33×31.75 cm Med Associates, Inc. St. Albans, Vt.) by a piece of transparent (Scotch®) tape attached to the tail, from about the mid-tail, with approximately 2 cm of tape past the end of the tail for 10 min during which the time spent immobile is measured. A reduction in total time immobile relative to the vehicle condition indicates an antidepressant drug-like response.

[2] = system: Male C57Bl/6J mice; assay: Amphetamine-induced hyperlocomotion assay; parameters: key: +++ = <1.0 mg/kg; ++ = 1-10 mg/kg; + = 10-30 mg/kg; NE = no effect; details: AMPH 4 mg/kg ip; stimulant-induced hyperactivity
Description: Amphetamine-Induced Hyperlocomotion Assay
Amphetamine (AMPH) is frequently used to induce or mimic a manic-like state. The antimanic-like effects of test compounds were evaluated in male C57Bl/6J mice. Mice were acclimatized to the experimental room for at least 1 hour prior to testing. The mice (n=10 per group) were administered vehicle or test compound and placed in the open field (OF) chambers for 30 minutes of baseline activity measurement. The mice were then injected with either water or AMPH (4 mg/kg, ip) and placed back in the OF chambers for a 60-minute testing session during which, the effects of test compounds on stimulant-induced hyperactivity behaviors (total distance traveled, rearing and stereotypy) were measured. Data were analyzed by analysis of variance (ANOVA) followed by post-hoc comparisons with Fisher Tests when appropriate.

[3] = system: mice; assay: Neuropharmacological Assay (SmartCube); details: for minimal effective dose: Mus musculus, read-out: POTENCY (minimal effective dose, MED); for AD: ADHD (SmartCube probability) / AG: analgesic (SmartCube probability) / AX: anxiolytic (SmartCube probability) / CE: cognitive enhancer (SmartCube probability) / DP: anti-depressant (SmartCube probability) / MS: mood stabilizer (SmartCube probability) / PS: anti-psychotic (SmartCube probability) / SD: sedative hypnotic (SmartCube probability) / UN: uncharacterized CNS activity (SmartCube probability): mice, i.p. 15 min before test, most efficacious dose(s) of 3 doses
How it was run: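 Compounds in NMP/PEG/propylene glycol given i.p. 15 min before automated video-based behavioral testing, at 3 doses; behavioral signature compared with a reference-compound database to give probability per drug class, reported at most efficacious dose. MED = dose (mpk) giving ≥50% total activity; doses typically 0.3–30 mpk.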

[4] = system: Male C57Bl/6J mice; assay: Phencyclidine (PCP)-induced hyperlocomotion; details: PCP 2.5 mg/kg s.c.; distance traveled
Description: Phencyclidine (PCP)-Induced Hyperlocomotion
The PCP-induced hyperlocomotion assay is an indicator of antipsychotic-like activity. Male C57Bl/6J mice (20-26 g) were administered vehicle or test compound and placed in holding cages for 30 minutes, after which they were placed in the locomotor activity chambers for 30 minutes of baseline capture. The test chambers are Plexiglas rectangular chambers (24×45 cm) that fit inside two steel frames (9.5×18 inches) and are fitted with two-dimensional 4×8 beam grids to monitor horizontal and vertical locomotor activity. Total distance traveled was measured from horizontal beam breaks as the animal traveled. Following the 30 minute baseline period, all […] were injected with saline or PCP (2.5 mg/kg, s.c.) and returned to the locomotor activity chambers for a 60 minute test session. A compound with antipsychotic-like activity will decrease the distance traveled following administration of PCP. Data were analyzed by analysis of variance (ANOVA) followed by post-hoc comparisons with Fisher Tests when appropriate.

[5] = system: Male Balb/cJ mice; assay: Forced Swim test (FST); details: 30 minute pretreatment; time immobile over 6 minute trial
Description: Forced Swim Test Procedures
The Forced Swim test (FST) is an indicator of the antidepressant-like activity of a test compound. Male Balb/cJ mice (26-31 g) were given a 30 minute pretreatment with vehicle (sterile water), sertraline control or test compound. The FST consists of one 6 minute session of forced swimming in individual opaque cylinders containing water at a temperature of 23±2° C. The mouse will swim before “giving up” and becoming immobile, the time spent immobile was recorded over the 6 minute trial. A compound with antidepressant-like activity will decrease the time the mouse is immobile over the 6 minute trial. Data were analyzed by analysis of variance (ANOVA) followed by post-hoc comparisons with Fisher Tests when appropriate.

[6] = MED = dose having 50% or more total activity in SmartCube

SMILES	TST: efficacious dose [1]	AMPH: efficacious dose [2]	minimal effective dose [3, 6] [mg/kg]	AD: ADHD (SmartCube probability) [3]	AG: analgesic (SmartCube probability) [3]	AX: anxiolytic (SmartCube probability) [3]	CE: cognitive enhancer (SmartCube probability) [3]	DP: anti-depressant (SmartCube probability) [3]	MS: mood stabilizer (SmartCube probability) [3]	PS: anti-psychotic (SmartCube probability) [3]	SD: sedative hypnotic (SmartCube probability) [3]	UN: uncharacterized CNS activity (SmartCube probability) [3]	PCP: efficacious dose [4]	FST: efficacious dose [5]	minimal effective dose [3] [mg/kg]
CNC[C@@H]1OCCc2c(F)cccc21 [Example 14, (R)-1-(5-fluoroisochroman-1-yl)-N-methylmethanamine]	+ (+ = 10-30 mg/kg)	+ (+ = 10-30 mg/kg)	< 3	+ (LOQ≤ + <5%)	++ (5%≤ ++ <25%)	++ (5%≤ ++ <25%)	++ (5%≤ ++ <25%)	++++ (50%≤ ++++)	++ (5%≤ ++ <25%)	++ (5%≤ ++ <25%)	++ (5%≤ ++ <25%)	+++ (25%≤ +++ <50%)			
CNC[C@@H]1OCCc2cccc(F)c21 [Example 26, (R)-1-(8-fluoroisochroman-1-yl)-N-methylmethanamine]	NE	+ (+ = 10-30 mg/kg)	< 3	+ (LOQ≤ + <5%)	++ (5%≤ ++ <25%)	++ (5%≤ ++ <25%)	++ (5%≤ ++ <25%)	++++ (50%≤ ++++)	+ (LOQ≤ + <5%)	++ (5%≤ ++ <25%)	++ (5%≤ ++ <25%)	+++ (25%≤ +++ <50%)	+++ (+++ = <1.0 mg/kg)	+++ (+++ = <1.0 mg/kg)	
CNC[C@@H]1OCCc2ccc3c(c21)OCO3 [Example 2, (R)-1-(6,9-dihydro-7H-[1,3]dioxolo[4,5-h]isochromen-9-yl)-N-methylmethanamine]		NE		+ (LOQ≤ + <5%)	++ (5%≤ ++ <25%)	++ (5%≤ ++ <25%)	++ (5%≤ ++ <25%)	+++ (25%≤ +++ <50%)	++ (5%≤ ++ <25%)	++ (5%≤ ++ <25%)	+ (LOQ≤ + <5%)	+++ (25%≤ +++ <50%)	+++ (+++ = <1.0 mg/kg)	+++ (+++ = <1.0 mg/kg)	< 3
CNC[C@@H]1OCCc2cc(F)ccc21 [Example 17, (R)-1-(6-fluoroisochroman-1-yl)-N-methylmethanamine]	NE	++ (++ = 1-10 mg/kg)	< 3	+ (LOQ≤ + <5%)	++ (5%≤ ++ <25%)	++ (5%≤ ++ <25%)	+++ (25%≤ +++ <50%)	++ (5%≤ ++ <25%)	+ (LOQ≤ + <5%)	+++ (25%≤ +++ <50%)	+ (LOQ≤ + <5%)	++ (5%≤ ++ <25%)			
CNC[C@H]1OC[C@H](O)c2ccc3c(c21)OCO3 (single isomer, unassigned) [Example 112]			> 30	+ (LOQ≤ + <5%)	+ (LOQ≤ + <5%)	++ (5%≤ ++ <25%)	+ (LOQ≤ + <5%)	++ (5%≤ ++ <25%)	+ (LOQ≤ + <5%)	+ (LOQ≤ + <5%)	+ (LOQ≤ + <5%)	+ (LOQ≤ + <5%)			
CNC[C@H]1OC[C@@H](O)c2cccc(F)c21 [Example 98, (1S,4S)-8-fluoro-1-((methylamino)methyl)isochroman-4-ol]			> 30	+ (LOQ≤ + <5%)	+ (LOQ≤ + <5%)	+ (LOQ≤ + <5%)	+ (LOQ≤ + <5%)	+ (LOQ≤ + <5%)	+ (LOQ≤ + <5%)	+ (LOQ≤ + <5%)	+ (LOQ≤ + <5%)	+ (LOQ≤ + <5%)			
